Source: patent US8992444B2, “Devices, systems, and methods for determining isometric and isotonic activity of luminal organs” (DTherapeutics, LLC, priority 2005, dated 2015)

Experiments:
[1] = test system: carotid and femoral arteries; assay: isovolumic myograph, vasoactivity of arterial segments; design: species or system Wistar rats; details: concentration-dependent contraction, FIG. 2
Experimental: Six Wistar rats weighing 300-350 g were used in the study. The animals were anesthetized with sodium pentobarbital (60 mg/kg, ip). A heating pad was used to maintain the body temperature of the animal during anesthesia. The left carotid and common femoral arteries of the rat were exposed and cannulated for blood pressure measurements. This was done to measure the in vivo difference in blood pressure between carotid and femoral arteries. Several 1 cm segments of right carotid and femoral arteries were excised and immediately stored in 4° C. physiological saline solution (PSS).
The samples were then prepared to be tested in the exemplary isovolumic myograph according to the present disclosure as shown in FIG. 1. To prepare the samples, PSS was first contained in an organ bath with a controlled heating system and warmed to 37° C. […]
Vessel 3 and pressure transducer 5 are isolated from the pressure system when vessel 3 is pressurized and the two stopcocks 6 and 7 are closed to vessel 3. […] The changes of the pressure are recorded. […]
The dosage-dependent vasoconstriction in response to phenylephrine was recorded. The dosage- and endothelium-dependent vasodilatation in response to acetylcholine was also recorded in phenylephrine pre-constriction. The dosage-dependent and endothelium-independent vasodilatation in response to sodium nitroprusside (SNP) was recorded in phenylephrine pre-constriction. […]

[2] = test system: aorta, femoral artery, and mesenteric artery; assay: isovolumic myography, dose-dependent vasoconstriction and vasodilatation; design: species or system Wistar male rats; details: 10^−5 mole/l; three types of arteries at physiological pressure
Experimental: Animals and tissue preparation. […] Six aorta, six femoral arteries, and six mesenteric arteries were harvested from eighteen rats. The animals were acclimated to the testing facility for approximately one week prior to the start of the study. On the day of termination, each animal was first anesthetized with sodium pentobarbital (80 mg/kg, i.p.) and euthanized by overanesthesia with sodium pentobarbital ([…], i.p.). Either the aorta, common femoral artery, or mesenteric artery were excised quickly and placed in ice-cold physiological saline solution (PSS in mmole/L: 119 NaCl, 4.7 KCl, 25 NaHCO3, 1.17 KH2PO4, 1.17 MgSO4, 1.6 CaCl, 5.5 Dextrose, solution gassed by 95% O2/5% CO2). The artery was carefully cleaned from adjacent tissue with the aid of a stereo-dissection microscope. The branches on the artery were ligated and the artery was allowed to warm up to room temperature (22° C.) slowly in approximately 10-15 min. The artery was transferred to the chamber of isovolumic system and cannulated with connectors and secured with 8-0 suture twice to avoid any leakage. The artery was warmed up to 37° C. slowly (20-25 min) and equilibrated for 40 min at a transmural pressure of 15 mmHg before agonist and antagonist stimulation.
Isovolumic myography. […]

CNC[C@H](O)c1cccc(O)c1 [phenylephrine]
concentration at which the pressure in the vessel reached a maximum [1]: 3 µmol/L
increase in intraluminal pressure [2]: 30 to 40 mmHg
